Data taken from US4877893A, “Process for the preparation of 2-(O-alkyl)-2-thio-1,3,2-oxathiophospholanes” (priority 1987, dated 1989).

Assays:
Test in all cases: Fungicidal effect on infected agar nutrient media, colony diameter
Type in all cases: cell-based
[1] = system: Sclerotinia sclerotinia; details: 3rd day after treatment, untreated control 41.7
Method: (§1) Agar nutrient media (Diameter 70 MM, thickness 10 mm) infected by Sclerotonia sclerotinia suspension are treated with 20 EC formulations prepared according to Example 27 and comprising 1, 10, 100 and 1000 ppm, respectively of the active ingredient of the Formula I. The fungicidal effect of the compositions is evaluated on the 3rd day after treatment by measuring the diameter of the Fungi colonies.

[2] = system: Penicillium cyclopium; details: 7th day after treatment, untreated 26.5
Method: as §1
The series of measureents described in Example 35 is carried out except that the agar nutrient media are infected by a Penicillium cyclopium Fungi strain and the test is evaluated on the 7th day after treatment.

[3] = system: Alternaria tenuis; details: 5th day after treatment, untreated control 36.8
Method: as §1
The series of measurements according to Example 35 is carried out except that the agar nutrient media are infected by Alternaria Tenius and evaluation is accomplished on the 5th day after treatment.

Compound	Diameter of colony (mm) ([1]; 1 ppm)	Diameter of colony (mm) ([1]; 10 ppm)	Diameter of colony (mm) ([1]; 100 ppm)	Diameter of colony (mm) ([1]; 1000 ppm)	Diameter of colony (mm) ([2]; 1 ppm)	Diameter of colony (mm) ([2]; 10 ppm)	Diameter of colony (mm) ([2]; 100 ppm)	Diameter of colony (mm) ([2]; 1000 ppm)	Diameter of colony (mm) ([3]; 1 ppm)	Diameter of colony (mm) ([3]; 10 ppm)	Diameter of colony (mm) ([3]; 100 ppm)	Diameter of colony (mm) ([3]; 1000 ppm)
CC(Cl)COP1(=S)OC(C)C(C)S1 (stereo not drawn) [Compound 40]	34.9	28.0	1.9	0	18.9	20.0	6.8	0	31.3	21.7	6.1	0
CCCCOP1(=S)OC(C)CS1 (stereo not drawn) [Compound 64]	36.9	28.7	3.0	0	26.0	20.0	8.7	0	34.6	26.1	4.5	0
CC1CSP(=S)(OC(C)C(C)I)O1 (stereo not drawn) [Compound 39]	37.2	30.2	3.6	0	21.1	15.8	4.7	0	34.6	23.3	7.3	0
CC1OP(=S)(OCCI)SC1C (stereo not drawn) [Compound 18]	38.2	28.0	1.5	0	25.2	14.2	6.3	0	35.8	22.8	5.3	0
CC1CSP(=S)(OCCI)O1 (stereo not drawn) [Compound 6]	39.3	30.0	1.0	0	21.3	17.3	9.0	0	35.5	21.0	6.0	0
CC(C)OP1(=S)OCCS1 (stereo not drawn) [Compound 57]	37.8	25.9	0	0	18.7	20.0	6.2	0	31.7	26.0	7.1	0
CCC(C)OP1(=S)OC(C)C(C)S1 (stereo not drawn) [Compound 53, 2-(0-1'-methyl-n-propyl)-2-thio-4,5-dimethyl1,3,2-oxathiophospholane]	35.8	30.0	3.8	0	24.8	19.2	7.6	0	33.9	25.4	6.6	0
CC(CCl)OP1(=S)OCCS1 (stereo not drawn) [Compound 10, 2-(0-1'-methyl-2'-chloroethyl)-2-thio-1,3,2-oxathiophospholane]	40.1	31.3	1.8	0	21.3	19.0	6.8	0	33.9	21.6	5.8	0
CC1CSP(=S)(OC(C)C(C)Cl)O1 (stereo not drawn) [Compound 37]	39.2	27.1	0	0	19.9	17.5	6.6	0	30.8	21.9	5.6	0
